What was measured:
[1] = tested on: endothelin-induced contractions in isolated aorta rings; assay: Inhibition of endothelin-induced contractions in isolated aorta rings of the rat; type: cell-based, rat (Wistar-Kyoto); settings: for Dosage ratio (correcting shift): shift to higher values of the EC50 of endothelin induced by 100 μm of test compound, endothelium removed
Method: II. Inhibition of endothelin-induced contractions in isolated aorta rings of the rat
Rings with a thickness of 5 mm were dissected from the thorax aorta of adult Wistar-Kyoto rats. The endothelium was removed by rubbing the internal surface slightly. Each ring was immersed in an isolated bath at 37° C. in 10 ml of Krebs-Henseleit solution while gassing with 95% O2 and 5% CO2. The isometric tension of the rings was measured. The rings were stretched to an initial tension of 3 g. After incubation with the test compound or vehicle for 10 minutes cumulative doses of endothelin-1 were added. The activity of the test compound was determined by calculating the dosage ratio, that is, the correcting shift (shift to higher values) of the EC50 of endothelin induced by 100 μm of test compound, whereby EC50 denotes the endothelin concentration required for a half-maximum contraction. […] The EC50 of endothelin in the absence of test compounds is 0.3 nM.

vasoconstriction = assay: Inhibitory activity on vasoconstriction in vivo in the rat (renal ischemia, renal blood flow); settings: 10 minutes prior to 45 min renal ischemia, control reduced by 43±4%
Method: III. The inhibitory activity of the compounds of formula I on vasoconstriction can be observed in vivo in the rat in the test procedure described hereinafter:
Rats were anaesthetized with Na thiobutabarbital (100 mg/kg i.p.). […] A Doppler probe was placed around the left renal artery and attached to a Doppler measuring device. A renal ischemia was produced by pinching off the left renal artery at its point of emergence for 45 minutes. The test compounds were administered 10 minutes prior to the onset of the ischemia intra-arterially (i.a.) in doses of 5 mg/kg or intraveneously (i.v) in doses of 10 mg/kg. In control experiments, the renal blood flow was reduced by 43±4% in comparison to the pre-ischemic value.

endothelin receptors = assay: Inhibition of endothelin binding to human placenta membranes (125I-endothelin); settings: concentration required to inhibit the specific binding of 125I-endothelin by 50%, 125I-endothelin 20 pM, 20° C. for 2 hours or 4° C. for 24 hours
Method: I. Inhibition of endothelin binding to human placenta membranes (see Life Sci 44:1429 (1989)
Human placenta is homogenized in 5 mM Tris buffer, pH 7.4, which contains 1 mM MgCl2 and 250 mM sucrose. The product of the homogenization is centrifuged at 4° C. for 15 minutes at 3000 g. The supernatant containing the plasma membrane fractions is centrifuged for 30 minutes at 72000 g and the precipitate obtained from, in each case, 10 g of original tissue is suspended in 1 ml of 75 mM Tris buffer, pH 7.4, containing 25 mM MgCl2 and 250 mM sucrose and freeze-dried at -20° C. in 1 ml aliquots.
For the binding assay, the freeze-dried membrane preparations are thawed and, after centrifugation at 20° C. for 10 minutes at 25000 g, re-suspended in assay buffer (50 mM Tris buffer, pH 7.4, containing 25 mM MnCl2, 1 mM EDTA and 0.5% bovine serum albumin). 100 μl of this membrane suspension, containing 70 μg of protein, are incubated with 50 μl of ^125 I-endothelin (specific activity 2200 Ci/mMol) in assay buffer (25000 cpm, final concentration 20 pM) and 100 μl of assay buffer which contains varying concentrations of the test compound. The incubation is carried out at 20° C. for 2 hours or at 4° C. for 24 hours. The separation of free and membrane-bound radioligands is carried out by filtration over a glass fiber filter.
The inhibitory activity of compounds of formula I determined in this test procedure is given in Table 1 as the IC50, that is, as the concentration [μM] which is required to inhibit the specific binding of ^125 I-endothelin by 50%.

Row | Compound | Dosage ratio (correcting shift) [1] | % Decrease in the renal of blood flow (vasoconstriction; i.v., 10 mg/kg) [%] | IC50 (endothelin receptors) [nM] | EC50 ([1]; in the absence of test compounds, half-maximum contraction) [nM] | % Decrease in the renal of blood flow (vasoconstriction; i.a., 5 mg/kg) [%]
1 | Cc1ccc(-c2c(NS(=O)(=O)c3ccc(C(C)C)cc3)ncnc2OCCO)cc1 [Example 83] | 86 | 29 | 700 |  | 
2 | endothelin: endothelin-1, contractile agonist added in cumulative doses to rat aorta rings [reference compound] |  |  |  | 0.3 | 
3 | COc1ccc(-c2c(NS(=O)(=O)c3ccc(C(C)C)cc3)ncnc2OCCO)cc1 [Example 54, N-[6-(2-hydroxyethoxy)-5-(p-methoxyphenyl)-4-pyrimidinyl]-p-isopropylbenzene-sulfonamide] | 21 |  | 3000 |  | 
4 | COc1ccccc1Cc1c(NS(=O)(=O)c2ccc(C(C)(C)C)cc2)ncnc1OCCO [Example 64, p-t-butyl-N-[6-(2-hydroxyethoxy)-5-(o-methoxy-benzyl)-4-pyrimidinyl]benzenesulfonamide] | 19 |  | 2000 |  | 
5 | CSc1ccccc1Cc1c(NS(=O)(=O)c2ccc(C(C)C)cc2)ncnc1OCCO [Example 66] | 96 |  | 500 |  | 
6 | O=S(=O)(Nc1ncnc(OCCO)c1-c1ccc(Cl)cc1)c1ccc(C(F)(F)F)cc1 [Example 1, N-[5-(p-chlorophenyl)-6-(2-hydroxyethoxy)-4-pyrimidinyl]-α,α,α-trifluoro-p-toluenesulfonamide] | 30 |  | 5000 |  | 7
7 | Cc1ccc(-c2c(NS(=O)(=O)c3ccc(C(C)(C)C)cc3)ncnc2OCCO)cc1 [Example 84, p-tert-butyl-N-[6-(2-hydroxyethoxy)-5-p-tolyl-4-pyrimidinyl]benzenesulfonamide] | 106 |  | 1000 |  | 
8 | COc1ccccc1Cc1c(NS(=O)(=O)c2ccc(C(C)C)cc2)ncnc1OCCO [Example 63] | 23 |  | 1600 |  | 

Source: patent US5270313A, “Sulfonamides and uses” (Hoffmann-La Roche Inc., priority 1991, dated 1993)
